A word on the IC50: it is the concentration that gives 50% inhibition.

Like-named read-outs stand apart in the source and are kept apart here. Bounds are passed on as bounds.

The experiment concerns the target T1, hM5 (Homo sapiens, UniProt P08912).
T1 construct: expressed in transfected cells
T1 sequence (P08912 1-532): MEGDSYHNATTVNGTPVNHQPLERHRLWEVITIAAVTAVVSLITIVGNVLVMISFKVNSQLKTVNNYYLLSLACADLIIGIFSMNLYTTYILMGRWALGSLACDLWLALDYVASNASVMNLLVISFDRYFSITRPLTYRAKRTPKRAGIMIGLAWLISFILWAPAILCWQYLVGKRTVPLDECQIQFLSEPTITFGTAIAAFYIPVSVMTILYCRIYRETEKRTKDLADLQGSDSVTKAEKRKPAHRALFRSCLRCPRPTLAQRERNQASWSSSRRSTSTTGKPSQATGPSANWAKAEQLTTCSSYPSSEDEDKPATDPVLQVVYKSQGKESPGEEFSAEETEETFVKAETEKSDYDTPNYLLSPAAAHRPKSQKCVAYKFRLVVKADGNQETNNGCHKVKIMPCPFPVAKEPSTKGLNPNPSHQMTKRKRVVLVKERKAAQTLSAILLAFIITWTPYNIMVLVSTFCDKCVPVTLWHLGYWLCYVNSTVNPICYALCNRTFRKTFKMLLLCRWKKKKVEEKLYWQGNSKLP
Briefly: Calcium mobilization concentration-response (IC50 vs EC80 acetylcholine), CHO hM5. Type of experiment: cell-based. Conditions: CELL LINE hM5, read-out: IC50. In a few lines: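 CHO cells stably expressing hM5, dye-loaded, in HBSS/20 mM HEPES/2.5 mM probenecid, pH 7.4. Compounds were pre-incubated 140 s before an EC80 acetylcholine challenge, with calcium flux read kinetically.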

[1] abbreviates: calcium mobilization, EC80 acetylcholine addition.

`Cc1ccc(S(=O)(=O)N2CCC(c3cn4ccnc4cc3C)CC2)cn1` [Compound 69, 7-methyl-6-(1-((6-methylpyridin-3-yl)sulfonyl)piperidin-4-yl)imidazo[1,2-a]pyridine]: the IC50 under setting [1] is over 10000 nM.

On to `Cc1nn(C)cc1S(=O)(=O)N1CCC(c2cn3ncnc3cc2F)CC1` [Compound 108, 6-(1-((1,3-dimethyl-1H-pyrazol-4-yl)sulfonyl)piperidin-4-yl)-7-fluoro-[1,2,4]triazolo[1,5-a]pyridine], for which the IC50 under setting [1] was over 10000 nM.

Take `Cc1cc2c(cc1C1CCN(S(=O)(=O)c3ccc4c(c3)CCO4)CC1)OCO2` [Compound 375, 1-((2,3-dihydrobenzofuran-5-yl)sulfonyl)-4-(6-methylbenzo[d][1,3]dioxol-5-yl)piperidine]: the 50% inhibitory concentration (IC50) under setting [1] stood at 2060 nM.

Turning to `Cc1cc2ncnn2cc1C1CCN(S(=O)(=O)c2cnn(C)c2C2CCNCC2)CC1` [Compound 577, 7-Methyl-6-(1-((1-methyl-5-(piperidin-4-yl)-1H-pyrazol-4-yl)sulfonyl)piperidin-4-yl)-[1,2,4]triazolo[1,5-a]pyridine], the IC50 (vs EC80 acetylcholine) was over 10000 nM.

On to `Cc1cc2ncnn2cc1C1CCN(S(=O)(=O)c2cnn(C)c2C#N)CC1` [Compound 400, 1-Methyl-4-((4-(7-methyl-[1,2,4]triazolo[1,5-a]pyridin-6-yl)piperidin-1-yl)sulfonyl)-1H-pyrazole-5-carbonitrile], for which the 50% inhibitory concentration (IC50) (vs EC80 acetylcholine) amounted to 18 nM.

For `CCc1cc2ncnn2cc1C1CCN(S(=O)(=O)c2cnn3c2CCCC3)CC1` [Compound 302, 7-ethyl-6-(1-((4,5,6,7-tetrahydropyrazolo[1,5-a]pyridin-3-yl)sulfonyl)piperidin-4-yl)-[1,2,4]triazolo[1,5-a]pyridine], the IC50 under setting [1] stood at 54 nM.

As for `Cc1sc(C#N)nc1C1CCN(S(=O)(=O)c2ccc3c(c2)CCO3)CC1` [Compound 226], under setting [1], the IC50 was 1400 nM.

`Cc1cc2ncnn2cc1C1CCN(S(=O)(=O)c2ccc3c(c2F)C(C)CO3)CC1` (stereo not shown) [Compound 104, 6-(1-((4-fluoro-3-methyl-2,3-dihydrobenzofuran-5-yl)sulfonyl)piperidin-4-yl)-7-methyl-[1,2,4]triazolo[1,5-a]pyridine]: under setting [1], the IC50 stood at 114 nM.

`O=S(=O)(c1ccc2c(c1)CCO2)N1CCC(c2nc3cc(F)ccc3[nH]2)CC1` [Compound 5, 2-(1-((2,3-dihydrobenzofuran-5-yl)sulfonyl)piperidin-4-yl)-5-fluoro-in-benzo[d]imidazole]: the concentration for half-maximal inhibition (IC50) under setting [1] is over 10000 nM.

Regarding `CCc1cc2ncnn2cc1C1CCN(S(=O)(=O)c2cnn(C)c2C)CC1` [Compound 297, 6-(1-((1,5-dimethyl-1H-pyrazol-4-yl)sulfonyl)piperidin-4-yl)-7-ethyl-[1,2,4]triazolo[1,5-a]pyridine], under setting [1], the IC50 is 73 nM.

With `Cc1c(S(=O)(=O)N2CCC(c3cn4ncnc4cc3C3CC3)CC2)cnn1C` [Compound 345, 7-cyclopropyl-6-(1-((1,5-dimethyl-1H-pyrazol-4-yl)sulfonyl)piperidin-4-yl)-[1,2,4]triazolo[1,5-a]pyridine], the IC50 under setting [1] was 134 nM.

Consider `Cc1nnc(S(=O)(=O)N2CCC(c3cn4ncnc4cc3C)CC2)s1` [Compound 539, 2-methyl-5-((4-(7-methyl-[1,2,4]triazolo[1,5-a]pyridin-6-yl)piperidin-1-yl)sulfonyl)-1,3,4-thiadiazole], for which the IC50 (vs EC80 acetylcholine) worked out at 31 nM.

For the compound `Cc1cc2ccnn2cc1C1CCN(S(=O)(=O)c2cnn(C)c2CC#N)CC1` [Compound 454, 2-(1-methyl-4-((4-(5-methylpyrazolo[1,5-a]pyridin-6-yl)piperidin-1-yl)sulfonyl)-1H-pyrazol-5-yl)acetonitrile], under “vs EC80 acetylcholine”, the IC50 was over 10000 nM.

Take `Cc1cc2ncnn2nc1C1CCN(S(=O)(=O)c2c(C)nn(C)c2Cl)CC1` [Compound 179, 6-(1-((5-chloro-1,3-dimethyl-1H-pyrazol-4-yl)sulfonyl)piperidin-4-yl)-7-methyl-[1,2,4]triazolo[1,5-b]pyridazine]: the IC50 under setting [1] amounted to 66 nM.

On to `[2H]C1([2H])CC(c2cn3ncnc3cc2F)CC([2H])([2H])N1S(=O)(=O)c1cnn2c1CCC2` [Compound 478, 6-(1-((5,6-dihydro-4H-pyrrolo[1,2-b]pyrazol-3-yl)sulfonyl)piperidin-4-yl-2,2,6,6-d4)-7-fluoro-[1,2,4]triazolo[1,5-a]pyridine], for which the IC50 (vs EC80 acetylcholine) came to 20 nM.

With `Cc1cc2ncnn2cc1[C@@H]1CCN(S(=O)(=O)c2cnn(C)c2C)C[C@H]1F` (racemic) [Compound 174, (rac)-6-(trans-1-((1,5-Dimethyl-1H-pyrazol-4-yl)sulfonyl)-3-fluoropiperidin-4-yl)-7-methyl-[1,2,4]triazolo[1,5-a]pyridine], the IC50 under setting [1] was 20 nM.

Turning to `Cc1nn(C)c(C(F)(F)F)c1S(=O)(=O)N1CCC(c2cn3ncnc3cc2F)CC1` [Compound 227, 6-(1-((1,3-dimethyl-5-(trifluoromethyl)-1H-pyrazol-4-yl)sulfonyl)piperidin-4-yl)-7-fluoro-[1,2,4]triazolo[1,5-a]pyridine], under setting [1], the IC50 stood at 2100 nM.

For the compound `[2H]C1([2H])Oc2cc(C)c(C3CCN(S(=O)(=O)c4cnc(C)s4)CC3)cc2OC1([2H])[2H]` [Compound 392, 2-methyl-5-((4-(7-methyl-2,3-dihydrobenzo[b][1,4]dioxin-6-yl-2,2,3,3-d4)piperidin-1-yl)sulfonyl)thiazole], under setting [1], the IC50 was over 10000 nM.

Regarding `Cn1ncc(S(=O)(=O)N2CC=C(c3c4ccccc4nn3C)CC2)c1C#N` [Compound 490, 1-methyl-4-((4-(2-methyl-2H-indazol-3-yl)-3,6-dihydropyridin-1(2H)-yl)sulfonyl)-1H-pyrazole-5-carbonitrile], for the setting “vs EC80 acetylcholine”, the IC50 amounted to 7300 nM.

Take `Cc1cc(S(=O)(=O)N2CCC(c3cn4ncnc4cc3C)CC2)c(C)s1` [Compound 145, 6-(1-((2,5-dimethylthiophen-3-yl)sulfonyl)piperidin-4-yl)-7-methyl-[1,2,4]triazolo[1,5-a]pyridine]: under setting [1], the IC50 is 989 nM.

In the case of `[2H]C1([2H])Oc2cc(C)c(C3CCN(S(=O)(=O)c4cnn(C)c4C)CC3)cc2OC1([2H])[2H]` [Compound 389, 1-((1,5-dimethyl-1H-pyrazol-4-yl)sulfonyl)-4-(7-methyl-2,3-dihydrobenzo[b][1,4]dioxin-6-yl-2,2,3,3-d4)piperidine], the IC50 under setting [1] was 182 nM.

Take `Cc1cc2ccnn2cc1C1CCN(S(=O)(=O)c2cnn(C)c2Cl)CC1` [Compound 470, 6-(1-((5-chloro-1-methyl-1H-pyrazol-4-yl)sulfonyl)piperidin-4-yl)-5-methylpyrazolo[1,5-a]pyridine]: the IC50 (vs EC80 acetylcholine) was found to be 94 nM.

`Cc1cc2ncnn2cc1C1(F)CCN(S(=O)(=O)c2cnn(C)c2CC#N)CC1` [Compound 457, 2-(4-((4-fluoro-4-(7-methyl-[1,2,4]triazolo[1,5-a]pyridin-6-yl)piperidin-1-yl)sulfonyl)-1-methyl-1H-pyrazol-5-yl)acetonitrile]: for the setting “vs EC80 acetylcholine”, the IC50 is over 10000 nM.

On to `Cc1cc2ncnn2cc1C1CCN(S(=O)(=O)c2cccc3nonc23)CC1` [Compound 168, 4-((4-(7-methyl-[1,2,4]triazolo[1,5-a]pyridin-6-yl)piperidin-1-yl)sulfonyl)benzo[c][1,2,5]oxadiazole], for which, under setting [1], the IC50 amounted to 821 nM.

With `Cc1cc2ncnn2cc1C1CCN(S(=O)(=O)c2ccc3c(c2)C(C)(C)CO3)CC1` [Compound 74, 6-(1-((3,3-dimethyl-2,3-dihydrobenzofuran-5-yl)sulfonyl)piperidin-4-yl)-7-methyl-[1,2,4]triazolo[1,5-a]pyridine], the IC50 under setting [1] was over 10000 nM.

Take `Cc1cc2nccn2nc1N1CCN(S(=O)(=O)c2ccc3c(c2)CCO3)CC1` [Compound 36, 6-(4-((2,3-Dihydrobenzofuran-5-yl)sulfonyl)piperazin-1-yl)-7-methylimidazo[1,2-b]pyridazine]: under setting [1], the IC50 stood at 4000 nM.

Consider `Cn1ncc(S(=O)(=O)N2CCC(c3cn4ncnc4cc3Cl)CC2)c1C#N` [Compound 405, 4-((4-(7-chloro-[1,2,4]triazolo[1,5-a]pyridin-6-yl)piperidin-1-yl)sulfonyl)-1-methyl-1H-pyrazole-5-carbonitrile], for which, for the setting “vs EC80 acetylcholine”, the IC50 is 11 nM.

Take `Cc1cc2nccnc2cc1C1=CCN(S(=O)(=O)c2cnn(C)c2Cl)CC1` [Compound 355, 6-(1-((5-chloro-1-methyl-1H-pyrazol-4-yl)sulfonyl)-1,2,3,6-tetrahydropyridin-4-yl)-7-methylquinoxaline]: the IC50 under setting [1] amounted to 157 nM.

Regarding `Cc1cc(C(F)(F)F)ncc1C1CCN(S(=O)(=O)c2ccc3c(c2)CCO3)CC1` [Compound 399, 5-(1-((2,3-dihydrobenzofuran-5-yl)sulfonyl)piperidin-4-yl)-4-methyl-2-(trifluoromethyl)pyridine], the IC50 (vs EC80 acetylcholine) was 3840 nM.

`Cc1cc2c(cc1S(=O)(=O)N1CCC(c3cc(C)c4ncnn4c3)CC1)C(C)CO2` (stereo not shown) [Compound 86, 6-(1-((3,6-dimethyl-2,3-dihydrobenzofuran-5-yl)sulfonyl)piperidin-4-yl)-8-methyl-[1,2,4]triazolo[1,5-a]pyridine]: the IC50 under setting [1] was 9200 nM.

On to `O=S(=O)(c1ccc2ncsc2c1)N1CCC(c2nc3cccnc3s2)CC1` [Compound 11, 2-(1-(benzo[d]thiazol-6-ylsulfonyl)piperidin-4-yl)thiazolo[5,4-b]pyridine], for which the IC50 under setting [1] is over 10000 nM.

The record behind these values is US20230183237A1, “COMPETITIVE AND NONCOMPETITIVE INHIBITORS OF THE MUSCARINIC ACETYLCHOLINE RECEPTOR M5” (Vanderbilt University, priority 2020, published 2023).
